Among the data in patent publication US11882830B2, “Pesticidal mixture comprising a carboxamide compound and a biopesticide” (priority 2015, dated 2024) are mortality values, retold here.

The test system of one experiment is diamondback moth. Kind of experiment: Lepidopteran efficacy: neonate diamondback moth via radish leaf dip. The experiment is classed as in vivo. Particulars: Plutella xylostella, foliar, 48 h, broflanilide @ 0.01 ppm, 2 DAT, read-out: Mean % Mortality @ Days after Treatment 2 DAT. The text has this: (§1) Synergism can be described as an interaction where the combined effect of two or more compounds is greater than the sum of the individual effects of each of the compounds.
(§2) When the observed combined control effect is greater than the expected combined control effect (E), then the combined effect is synergistic.
(§3) Large leaf lima bean (southern armyworm) and radish (diamondback moth) were dipped in treatment solution and allowed to dry. The leaves were excised and placed individually into square petri dishes containing two filter paper discs moistened with 0.5 ml of reverse osmosis water. One neonate insect per dish (total of 20 dishes per treatment, grouped into 5 dishes per replicate) were infested for the test with southern armyworm. Five insects per dish (total of 5 dishes per treatment) were infested for the test with diamondback moth. The studies were held in an environmental chamber 14 L: 10 D at 30° C. and 70% RH. The number of dead and moribund insects were recorded (moribund was considered dead). Rate rundowns were conducted initially to determine sublethal rates for the combination testing.
(§4) 5 replications with 5 insects are each conducted per treatment, insects are held singly.
(§5) Control mortality is less than 15% and standard treatments yielded 100% mortality.

For the next experiment, the system named is southern armyworm. The experiment can be described thus: Lepidopteran efficacy: neonate southern armyworm via lima bean leaf dip. It is filed as in vivo. Particulars: Spodoptera eridania, foliar, 96 h, broflanilide @ 0.0025 ppm, 4 DAT, read-out: Mean % Mortality @ Days after Treatment 4 DAT.
From the text: as §1, §2, §3, §4, §5

By mortality is commonly meant the percentage killed.

Each structure is given as a SMILES string.

Turning to `CN(C(=O)c1ccccc1)c1cccc(C(=O)Nc2c(Br)cc(C(F)(C(F)(F)F)C(F)(F)F)cc2C(F)(F)F)c1F` [broflanilide], the mortality at 0.01 ppm with diamondback moth was determined as 44%. The mortality at 0.0025 ppm in the experiment with southern armyworm was found to be 23.5%.
